By IC50 is commonly meant the concentration that gives 50% inhibition.

SMILES strings stand for the structures.

For the test, the target named is T1, voltage-dependent T-type calcium channel subunit alpha-1G (Cav3.2) (Homo sapiens, UniProt O95180).
T1 construct: expressed in transfected cells; host or cells: HEK293
T1 sequence (O95180 whole entry): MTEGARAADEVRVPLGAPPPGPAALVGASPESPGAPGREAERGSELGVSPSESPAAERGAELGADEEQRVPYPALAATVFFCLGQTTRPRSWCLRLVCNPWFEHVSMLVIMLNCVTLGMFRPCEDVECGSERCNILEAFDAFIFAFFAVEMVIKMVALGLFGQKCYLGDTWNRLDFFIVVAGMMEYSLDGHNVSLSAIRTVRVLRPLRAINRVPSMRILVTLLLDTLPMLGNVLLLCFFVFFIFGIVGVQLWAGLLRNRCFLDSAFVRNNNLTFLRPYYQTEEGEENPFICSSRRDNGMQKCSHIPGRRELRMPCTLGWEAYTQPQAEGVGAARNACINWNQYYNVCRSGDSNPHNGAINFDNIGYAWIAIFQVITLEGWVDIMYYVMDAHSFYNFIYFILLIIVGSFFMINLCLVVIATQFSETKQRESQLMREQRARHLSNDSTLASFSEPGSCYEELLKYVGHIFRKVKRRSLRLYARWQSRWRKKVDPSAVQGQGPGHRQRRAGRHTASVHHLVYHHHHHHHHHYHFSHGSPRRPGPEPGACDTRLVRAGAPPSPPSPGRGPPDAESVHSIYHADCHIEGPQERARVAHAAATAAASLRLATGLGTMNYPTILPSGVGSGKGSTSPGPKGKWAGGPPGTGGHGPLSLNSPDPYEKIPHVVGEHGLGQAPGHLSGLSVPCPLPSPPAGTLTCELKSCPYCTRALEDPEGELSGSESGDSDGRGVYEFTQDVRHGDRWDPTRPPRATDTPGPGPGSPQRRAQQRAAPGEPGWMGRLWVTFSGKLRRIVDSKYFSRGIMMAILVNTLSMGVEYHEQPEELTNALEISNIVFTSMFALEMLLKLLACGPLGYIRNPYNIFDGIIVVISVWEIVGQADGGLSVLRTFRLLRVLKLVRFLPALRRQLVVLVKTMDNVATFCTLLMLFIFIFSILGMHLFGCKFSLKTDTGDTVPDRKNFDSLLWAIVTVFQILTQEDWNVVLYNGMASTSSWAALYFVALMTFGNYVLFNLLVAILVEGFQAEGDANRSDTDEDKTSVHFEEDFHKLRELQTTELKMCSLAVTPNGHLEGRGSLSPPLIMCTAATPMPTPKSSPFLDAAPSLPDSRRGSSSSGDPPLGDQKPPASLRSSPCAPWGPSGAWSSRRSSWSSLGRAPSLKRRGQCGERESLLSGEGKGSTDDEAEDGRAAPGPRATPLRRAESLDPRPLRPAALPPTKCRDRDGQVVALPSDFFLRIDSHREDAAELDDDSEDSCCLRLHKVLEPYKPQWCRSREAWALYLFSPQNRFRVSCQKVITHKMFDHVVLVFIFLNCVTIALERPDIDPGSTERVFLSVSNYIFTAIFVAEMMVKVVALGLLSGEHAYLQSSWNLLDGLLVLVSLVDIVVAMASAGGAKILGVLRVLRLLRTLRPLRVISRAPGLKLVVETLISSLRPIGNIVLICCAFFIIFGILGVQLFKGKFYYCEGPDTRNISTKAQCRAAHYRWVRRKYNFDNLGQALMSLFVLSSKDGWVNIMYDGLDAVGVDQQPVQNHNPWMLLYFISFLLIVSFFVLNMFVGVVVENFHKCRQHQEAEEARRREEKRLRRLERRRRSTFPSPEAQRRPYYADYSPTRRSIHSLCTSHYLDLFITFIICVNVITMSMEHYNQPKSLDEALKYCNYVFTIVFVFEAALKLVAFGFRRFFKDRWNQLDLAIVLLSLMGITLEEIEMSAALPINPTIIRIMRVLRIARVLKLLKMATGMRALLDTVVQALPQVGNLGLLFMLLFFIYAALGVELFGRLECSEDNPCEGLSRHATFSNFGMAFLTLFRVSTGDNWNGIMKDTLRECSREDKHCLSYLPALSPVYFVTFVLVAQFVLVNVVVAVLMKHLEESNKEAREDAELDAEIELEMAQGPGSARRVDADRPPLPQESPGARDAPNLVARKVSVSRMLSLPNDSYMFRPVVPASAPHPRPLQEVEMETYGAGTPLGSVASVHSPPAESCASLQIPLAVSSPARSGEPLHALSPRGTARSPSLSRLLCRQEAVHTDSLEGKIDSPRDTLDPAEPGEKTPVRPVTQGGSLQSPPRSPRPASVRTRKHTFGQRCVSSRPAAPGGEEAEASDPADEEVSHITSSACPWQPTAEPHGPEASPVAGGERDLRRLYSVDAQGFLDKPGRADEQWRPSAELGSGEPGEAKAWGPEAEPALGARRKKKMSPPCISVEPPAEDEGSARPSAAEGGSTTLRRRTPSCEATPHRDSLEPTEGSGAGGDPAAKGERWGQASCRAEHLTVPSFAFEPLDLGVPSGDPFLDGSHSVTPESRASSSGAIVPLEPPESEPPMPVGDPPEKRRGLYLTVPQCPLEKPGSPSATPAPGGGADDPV
Description: FLIPR calcium flux assay, HEK293 cells recombinantly expressing Cav3.2. The class given is cell-based. To be noted: Cav3.2-channel, Fluo-4-AM, 3 min incubation, stimulation with 10 mM CaCl2. Put shortly: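 HEK293 cells stably expressing human Cav3.2 were loaded with Fluo-4-AM. Compounds diluted in TEAC buffer (pH 7.2) were preincubated for 3 min, then Ca2+ entry was triggered by 10 mM final CaCl2. Inhibition curves were fitted sigmoidally to the area under the fluorescence trace.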
With `N#Cc1cc(Cn2ccc(NC(=O)Cc3ccc(C4CC(F)(F)C4)cc3)n2)ccc1F` [Example 312, N-[1-(3-Cyano-4-fluoro-benzyl)-1H-pyrazol-3-yl]-2-[4-(3,3-difluoro-cyclobutyl)-phenyl]-acetamide], the IC50 came to 10 nM.
With `N#Cc1cc(Cn2ccc(NC(=O)Cc3ccc(OCC4CC(F)(F)C4)cc3)n2)ccc1F` [Example 313, N-[1-(3-Cyano-4-fluoro-benzyl)-1H-pyrazol-3-yl]-2-[4-(3,3-difluoro-cyclobutylmethoxy)-phenyl]-acetamide], the IC50 was 45 nM.
With `N#Cc1cc(Cn2ccc(NC(=O)Cc3ccc(C4(C(F)(F)F)CC4)cc3)n2)ccc1F` [Example 314, N-[1-(3-Cyano-4-fluoro-benzyl)-1H-pyrazol-3-yl]-2-[4-(1-trifluoromethyl-cyclopropyl)-phenyl]-acetamide] the figure was 32 nM.
`O=C(Cc1ccc(C2(F)COC2)nc1)Nc1ccn(Cc2ccc(F)c(F)c2)n1` [Example 315, N-[1-(3,4-Difluoro-benzyl)-1H-pyrazol-3-yl]-2-[6-(3-fluoro-oxetan-3-yl)-pyridin-3-yl]-acetamide]: the IC50 amounted to 240 nM.
On to `CC1(c2ccc(CC(=O)Nc3ccn(Cc4ccc(F)c(C#N)c4)n3)cc2)COC1` [Example 316, N-[1-(3-Cyano-4-fluoro-benzyl)-1H-pyrazol-3-yl]-2-[4-(3-methyl-oxetan-3-yl)-phenyl]-acetamide], for which the half-inhibitory concentration (IC50) came to 36 nM.
In the case of `CC1(c2ccc(CC(=O)Nc3ccn(Cc4ccc(C#N)cc4)n3)cc2)COC1` [Example 317, N-[1-(4-Cyano-benzyl)-1H-pyrazol-3-yl]-2-[4-(3-methyl-oxetan-3-yl)-phenyl]-acetamide], the half-inhibitory concentration (IC50) is 56 nM.
For `CC1(c2ccc(CC(=O)Nc3ccn(Cc4ccc(C#N)cn4)n3)cc2)COC1` [Example 318, N-[1-(5-Cyano-pyridin-2-ylmethyl)-1H-pyrazol-3-yl]-2-[4-(3-methyl-oxetan-3-yl)-phenyl]-acetamide], the half-maximal inhibitory concentration (IC50) was found to be 378 nM.
`Cc1cn(C)c2ncc(CC(=O)Nc3ccn(Cc4ccc(F)c(C#N)c4)n3)cc12` [Example 321, N-[1-(3-Cyano-4-fluoro-benzyl)-1H-pyrazol-3-yl]-2-(1,3-dimethyl-1H-pyrrolo[2,3-b]pyridin-5-yl)-acetamide]: the IC50 was 91 nM.
As for `Cc1cn(C)c2ncc(CC(=O)Nc3ccn(Cc4ccc(C#N)cn4)n3)cc12` [Example 322, N-[1-(5-Cyano-pyridin-2-ylmethyl)-1H-pyrazol-3-yl]-2-(1,3-dimethyl-1H-pyrrolo[2,3-b]pyridin-5-yl)-acetamide], the half-maximal inhibitory concentration (IC50) came out at 856 nM.
Take `Cn1cc(C2CCC2)c2cc(CC(=O)Nc3ccn(Cc4ccc(C#N)cn4)n3)ccc21` [Example 323, N-[1-(5-Cyano-pyridin-2-ylmethyl)-1H-pyrazol-3-yl]-2-(3-cyclobutyl-1-methyl-1H-indol-5-yl)-acetamide]: the IC50 was found to be 36 nM.
In the case of `CC(C)c1cn(C)c2ccc(CC(=O)Nc3ccn(Cc4ccc(C#N)cn4)n3)cc12` [Example 324, N-[1-(5-Cyano-pyridin-2-ylmethyl)-1H-pyrazol-3-yl]-2-(3-isopropyl-1-methyl-1H-indol-5-yl)-acetamide], the IC50 amounted to 31 nM.
As to `Cn1cc(C#N)c2cc(CC(=O)Nc3ccn(Cc4ccc(C#N)cn4)n3)ccc21` [Example 325, 2-(3-Cyano-1-methyl-1H-indol-5-yl)-N-[1-(5-cyano-pyridin-2-ylmethyl)-1H-pyrazol-3-yl]-acetamide], the concentration for half-maximal inhibition (IC50) was determined as 893 nM.
With `Cn1cc(C(F)(F)F)c2cc(CC(=O)Nc3ccn(Cc4ccc(C#N)cn4)n3)ccc21` [Example 326, N-[1-(5-Cyano-pyridin-2-ylmethyl)-1H-pyrazol-3-yl]-2-(1-methyl-3-trifluoromethyl-1H-indol-5-yl)-acetamide], the half-maximal inhibitory concentration (IC50) is 33 nM.
With `Cn1cc(C2CCC2)c2cc(CC(=O)Nc3ccn(Cc4ccc(F)c(C#N)c4)n3)ccc21` [Example 327, N-[1-(3-Cyano-4-fluoro-benzyl)-1H-pyrazol-3-yl]-2-(3-cyclobutyl-1-methyl-1H-indol-5-yl)-acetamide] the figure was 37 nM.
`CC(C)c1cn(C)c2ccc(CC(=O)Nc3ccn(Cc4ccc(F)c(C#N)c4)n3)cc12` [Example 328, N-[1-(3-Cyano-4-fluoro-benzyl)-1H-pyrazol-3-yl]-2-(3-isopropyl-1-methyl-1H-indol-5-yl)-acetamide]: the IC50 is 33 nM.
Regarding `Cn1cc(C#N)c2cc(CC(=O)Nc3ccn(Cc4ccc(F)c(C#N)c4)n3)ccc21` [Example 329, N-[1-(3-Cyano-4-fluoro-benzyl)-1H-pyrazol-3-yl]-2-(3-cyano-1-methyl-1H-indol-5-yl)-acetamide], the IC50 is 80 nM.
With `Cc1cn(C)c2cc(CC(=O)Nc3ccn(Cc4ccc(F)c(C#N)c4)n3)ccc12` [Example 330, N-[1-(3-Cyano-4-fluoro-benzyl)-1H-pyrazol-3-yl]-2-(1,3-dimethyl-1H-indol-6-yl)-acetamide] the figure was 4.8 nM.
With `Cc1cn(C)c2cc(CC(=O)Nc3ccn(Cc4ccc(C#N)cn4)n3)ccc12` [Example 331, N-[1-(5-Cyano-pyridin-2-ylmethyl)-1H-pyrazol-3-yl]-2-(1,3-dimethyl-1H-indol-6-yl)-acetamide], the half-maximal inhibitory concentration (IC50) was determined as 9.6 nM.
For `N#Cc1cc(Cn2ccc(NC(=O)Cc3ccc(F)cc3OCC(F)(F)F)n2)ccc1F` [Example 332, N-[1-(3-Cyano-4-fluoro-benzyl)-1H-pyrazol-3-yl]-2-[4-fluoro-2-(2,2,2-trifluoro-ethoxy)-phenyl]-acetamide] the value was 600 nM; for `N#Cc1ccc(Cn2ccc(NC(=O)Cc3ccc(F)cc3OCC(F)(F)F)n2)nc1` [Example 333, N-[1-(5-Cyano-pyridin-2-ylmethyl)-1H-pyrazol-3-yl]-2-[4-fluoro-2-(2,2,2-trifluoro-ethoxy)-phenyl]-acetamide], 2790 nM; for `N#Cc1cc(Cn2ccc(NC(=O)Cc3ccc(S(F)(F)(F)(F)F)cc3)n2)ccc1F` [Example 334, N-(1-(3-cyano-4-fluorobenzyl)-1H-pyrazol-3-yl)-2-(4-(pentafluoro-λ^6-sulfanyl)phenyl)acetamide], 21 nM.
For the compound `CC(C)(C#N)c1ccc(CC(=O)Nc2ccn(Cc3ccc(F)c(C#N)c3)n2)cc1` [Example 335, 2-[4-(Cyano-dimethyl-methyl)-phenyl]-N-[1-(3-cyano-4-fluoro-benzyl)-1H-pyrazol-3-yl]-acetamide], the IC50 stood at 20 nM.
Regarding `N#Cc1ccc(Cn2ccc(NC(=O)Cc3ccc(S(F)(F)(F)(F)F)cc3)n2)nc1` [Example 336, N-(1-((5-cyanopyridin-2-yl)methyl)-1H-pyrazo1-3-yl)-2-(4-(pentafluoro-λ^6-sulfanyl)phenyl)acetamide], the concentration for half-maximal inhibition (IC50) stood at 34 nM.
Turning to `CC(C)(C#N)c1ccc(CC(=O)Nc2ccn(Cc3ccc(C#N)cn3)n2)cc1` [Example 337, 2-[4-(Cyano-dimethyl-methyl)-phenyl]-N-[1-(5-cyano-pyridin-2-ylmethyl)-1H-pyrazol-3-yl]-acetamide], the IC50 was 168 nM.
For `N#Cc1ccc(Cn2ccc(NC(=O)Cc3ccc(C(F)(F)F)cc3)n2)nc1` [Example 338, N-[1-(5-Cyano-pyridin-2-ylmethyl)-1H-pyrazol-3-yl]-2-(4-trifluoromethyl-phenyl)-acetamide] the value was 61 nM; for `N#Cc1cc(Cn2ccc(NC(=O)Cc3cnc(N4CCCC4)c(F)c3)n2)ccc1F` [Example 340, N-[1-(3-Cyano-4-fluoro-benzyl)-1H-pyrazol-3-yl]-2-(5-fluoro-6-pyrrolidin-1-yl-pyridin-3-yl)-acetamide], 8.5 nM.
As to `N#Cc1ccc(Cn2ccc(NC(=O)Cc3cnc(N4CCCC4)c(F)c3)n2)nc1` [Example 341, N-[1-(5-Cyano-pyridin-2-ylmethyl)-1H-pyrazol-3-yl]-2-(5-fluoro-6-pyrrolidin-1-yl-pyridin-3-yl)-acetamide], the IC50 worked out at 64 nM.
For `N#Cc1cc(Cn2ccc(NC(=O)Cc3ccc(C(F)(F)F)cc3)n2)ccc1F` [Example 342, N-[1-(3-Cyano-4-fluoro-benzyl)-1H-pyrazol-3-yl]-2-(4-trifluoromethyl-phenyl)-acetamide], the 50% inhibitory concentration (IC50) was determined as 40 nM.
For `Cc1cc(CC(=O)Nc2ccn(Cc3ccc(F)c(C#N)c3)n2)ccc1OCC(F)(F)F` [Example 343, N-[1-(3-Cyano-4-fluoro-benzyl)-1H-pyrazol-3-yl]-2-[3-methyl-4-(2,2,2-trifluoro-ethoxy)-phenyl]-acetamide], the IC50 is 4.5 nM.
With `Cn1ncc2cc(CC(=O)Nc3ccn(Cc4cc(F)c(C#N)c(F)c4)n3)ccc21` [Example 344, N-[1-(4-Cyano-3,5-difluoro-benzyl)-1H-pyrazol-3-yl]-2-(1-methyl-1H-indazol-5-yl)-acetamide] the figure was 52 nM.
With `Cn1ncc2ccc(CC(=O)Nc3ccn(Cc4cc(F)c(C#N)c(F)c4)n3)cc21` [Example 346, N-[1-(4-Cyano-3,5-difluoro-benzyl)-1H-pyrazol-3-yl]-2-(1-methyl-1H-indazol-6-yl)-acetamide] the figure was 159 nM; with `N#Cc1c(F)cc(Cn2ccc(NC(=O)Cc3ccc(C4(F)COC4)cc3)n2)cc1F` [Example 347, N-[1-(4-Cyano-3,5-difluoro-benzyl)-1H-pyrazol-3-yl]-2-[4-(3-fluoro-oxetan-3-yl)-phenyl]-acetamide], 85 nM.
In the case of `Cc1nn(C)c2ccc(CC(=O)Nc3ccn(Cc4cc(F)c(C#N)c(F)c4)n3)cc12` [Example 348, N-[1-(4-Cyano-3,5-difluoro-benzyl)-1H-pyrazol-3-yl]-2-(1,3-dimethyl-1H-indazol-5-yl)-acetamide], the IC50 is 29 nM.
With `N#Cc1c(F)cc(Cn2ccc(NC(=O)Cc3ccc(N4CCC(F)(F)C4)nc3)n2)cc1F` [Example 349, N-[1-(4-Cyano-3,5-difluoro-benzyl)-1H-pyrazol-3-yl]-2-[6-(3,3-difluoro-pyrrolidin-1-yl)-pyridin-3-yl]-acetamide], the IC50 came to 23 nM.
